This is an account of results in patent publication US20240158446A1, “CYCLIC COMPOUND HAVING SELECTIVE INHIBITORY ACTION ON KRAS OVER HRAS AND NRAS” (CHUGAI SEIYAKU KABUSHIKI KAISHA, priority 2021, published 2024).

Test [1] addresses GDP-bound KRAS wild-type protein (Homo sapiens, UniProt P01116). As to the kind of experiment: Binding to KRAS by surface plasmon resonance (SPR), Single Cycle Kinetics. The conditions noted are these: GDP-bound KRAS wild-type protein, read-out: KRAS KD.
Test [2] has as its target GDP-bound NRAS wild-type protein (Homo sapiens, UniProt P01111). Briefly: Binding to NRAS by surface plasmon resonance (SPR), Single Cycle Kinetics. The conditions noted are these: for NRAS/KRAS (ratio of KD value with respect to NRAS to KD value with respect to KRAS) / NRAS/KRAS (ratio of KD value for NRAS to KD value for KRAS): SPR, GDP-bound NRAS wild-type protein vs GDP-bound KRAS wild-type protein; for NRAS/KRAS (ratio of KD value with respect to GDP-bound NRAS wild-type protein to KD value with respect to KRAS): SPR KD ratio NRAS/KRAS, class symbols.

In test [3] the target is GDP-bound HRAS wild-type protein (Homo sapiens, UniProt P01112). Briefly: Binding to HRAS by surface plasmon resonance (SPR), Single Cycle Kinetics. The conditions noted are these: for HRAS/KRAS (ratio of KD value with respect to HRAS to KD value with respect to KRAS) / HRAS/KRAS (ratio of KD value for HRAS to KD value for KRAS): SPR, GDP-bound HRAS wild-type protein vs GDP-bound KRAS wild-type protein; for HRAS/KRAS (ratio of KD value with respect to GDP-bound HRAS wild-type protein to KD value with respect to KRAS): SPR KD ratio HRAS/KRAS, class symbols.
GDP-bound HRAS wild-type protein, sequence (P01112 whole entry): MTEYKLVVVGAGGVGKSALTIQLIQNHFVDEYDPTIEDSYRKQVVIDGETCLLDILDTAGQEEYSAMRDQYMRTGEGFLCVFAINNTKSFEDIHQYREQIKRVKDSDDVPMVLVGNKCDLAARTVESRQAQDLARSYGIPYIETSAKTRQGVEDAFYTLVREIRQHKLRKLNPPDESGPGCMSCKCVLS

Setting [4] is: SPR Single Cycle Kinetics, 1:1 binding model.

Where two headings read alike, the source gives them in different places. *1 amine or outer side, *2 acyl side, *3 side chain or, on linkers, in order; H or OH if unused. Where a SMILES comes first, the peptide text is derived from it. Bridges are numbered along the chain shown (N, C = ends). [ ]: non-standard residue; d: D form. The star is where a group is joined. hPhe(3,5-F2-4-CF3) = N[C@@H](CCc1cc(F)c(C(F)(F)F)c(F)c1)C(=O)O; hPhe(3-Cl-4-CF3) = N[C@@H](CCc1ccc(C(F)(F)F)c(Cl)c1)C(=O)O; X40 = CC(C)CN([C@@H](Cc1ccc(C(F)(F)F)cc1)C(=O)[*:2])[*:1]; NPrPhe(4-CF3) = CCCN[C@@H](Cc1ccc(C(F)(F)F)cc1)C(=O)O; NEtPhe(4-Me) = CCN[C@@H](Cc1ccc(C)cc1)C(=O)O; NMeGly(cPent) = CN[C@H](C(=O)O)C1CCCC1; Pro(4,4-F2) = O=C(O)[C@@H]1CC(F)(F)CN1; NEtPhe = CCN[C@@H](Cc1ccccc1)C(=O)O; Nva(3-Et) = CCC(CC)[C@H](N)C(=O)O; NMeD = CN[C@@H](CC(=O)O)C(=O)O; NMeL = CN[C@@H](CC(C)C)C(=O)O; NEtAla = CCN[C@@H](C)C(=O)O; Morpholide = C1CN(*)CCO1; NMeA = CN[C@@H](C)C(=O)O; Ac5c = NC1(C(=O)O)CCCC1; Aze = O=C(O)[C@@H]1CCN1; Sar = CNCC(=O)O

GDP-bound NRAS wild-type protein, sequence (P01111 whole entry): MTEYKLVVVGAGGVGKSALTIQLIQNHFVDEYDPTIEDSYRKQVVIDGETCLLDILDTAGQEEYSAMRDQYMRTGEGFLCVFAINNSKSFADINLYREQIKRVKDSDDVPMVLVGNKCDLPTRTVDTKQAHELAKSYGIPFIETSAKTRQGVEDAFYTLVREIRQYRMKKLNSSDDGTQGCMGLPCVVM
GDP-bound KRAS wild-type protein, sequence (P01116 whole entry): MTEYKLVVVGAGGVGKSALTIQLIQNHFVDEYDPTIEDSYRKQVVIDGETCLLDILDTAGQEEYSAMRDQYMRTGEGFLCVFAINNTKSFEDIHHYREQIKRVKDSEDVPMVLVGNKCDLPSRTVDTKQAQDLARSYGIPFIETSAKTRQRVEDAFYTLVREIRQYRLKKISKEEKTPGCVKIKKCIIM

Turning to `CCCN1C(=O)CN(C)C(=O)CN(C)C(=O)[C@H](C(CC)CC)NC(=O)[C@H](CC(C)C)N(C)C(=O)C[C@@H](C(=O)N2CCOCC2)N(C)C(=O)[C@H](C2CCCC2)N(C)C(=O)C2(CCCC2)NC(=O)[C@@H]2CCCN2C(=O)[C@H](CCc2cc(F)c(C(F)(F)F)c(F)c2)NC(=O)CN(C)C(=O)[C@@H]1Cc1ccc(C(F)(F)F)cc1` [PP0768] ([NMeL][Nva(3-Et)][Sar][Sar][NPrPhe(4-CF3)][Sar][hPhe(3,5-F2-4-CF3)]P[Ac5c][NMeGly(cPent)][NMeD]-Morpholide; lactam N-11), in test [1] (setting [4]), the Kd worked out at 0.97 nM. For the same compound, the “NRAS/KRAS (ratio of KD value with respect to NRAS to KD value with respect to KRAS)” value in test [2] is “B (a compound having 3 or more and less than 10 is denoted as B)”. Moreover, the “HRAS/KRAS (ratio of KD value with respect to HRAS to KD value with respect to KRAS)” value in test [3] was “C (A compound having a KD ratio of 0.1 or more and less than 3 is denoted as C)”.

Regarding `CCCN1C(=O)CN(C)C(=O)CNC(=O)[C@H]([C@@H](C)CC)NC(=O)[C@H](CC(C)C)N(C)C(=O)C[C@@H](C(=O)N(C)C)N(C)C(=O)[C@H](C2CCCC2)N(C)C(=O)C2(CCCC2)NC(=O)[C@@H]2CC(F)(F)CN2C(=O)[C@H](CCc2ccc(C(F)(F)F)c(Cl)c2)NC(=O)CN(C)C(=O)[C@@H]1Cc1ccc(C(F)(F)F)cc1` [PP0419] ([NMeL]IG[Sar][NPrPhe(4-CF3)][Sar][hPhe(3-Cl-4-CF3)][Pro(4,4-F2)][Ac5c][NMeGly(cPent)][NMeD]-NMe2; lactam N-11), the Kd in test [1] (setting [4]) is 0.067 nM. Besides, the “NRAS/KRAS (ratio of KD value with respect to NRAS to KD value with respect to KRAS)” value in test [2] was “B (a compound having 3 or more and less than 10 is denoted as B)”. Besides, the “HRAS/KRAS (ratio of KD value with respect to HRAS to KD value with respect to KRAS)” value in test [3] is “C (A compound having a KD ratio of 0.1 or more and less than 3 is denoted as C)”.

With `CCCN1C(=O)[C@@H]2CCN2C(=O)[C@H](C)N(CC)C(=O)[C@H]([C@@H](C)CC)NC(=O)[C@H](CC(C)C)N(C)C(=O)C[C@@H](C(=O)N2CCOCC2)N(C)C(=O)[C@H](C2CCCC2)N(C)C(=O)C2(CCCC2)NC(=O)[C@@H]2CCCN2C(=O)[C@H](CCc2ccc(C(F)(F)F)c(Cl)c2)NC(=O)CN(C)C(=O)[C@@H]1Cc1ccc(C(F)(F)F)cc1` [PP0152] ([NMeL]I[NEtAla][Aze][NPrPhe(4-CF3)][Sar][hPhe(3-Cl-4-CF3)]P[Ac5c][NMeGly(cPent)][NMeD]-Morpholide; lactam N-11), the Kd in test [1] (setting [4]) worked out at 2.8 nM. Besides, in test [2], the “NRAS/KRAS (ratio of KD value for NRAS to KD value for KRAS)” value was “C (A compound having a KD ratio of 0.1 or more and less than 3 is denoted as C)”. Further, the “HRAS/KRAS (ratio of KD value for HRAS to KD value for KRAS)” value in test [3] was “B (a compound having 3 or more and less than 10 is denoted as B)”.

Take `CC[C@H](C)[C@@H]1NC(=O)[C@H](CC(C)C)N(C)C(=O)C[C@@H](C(=O)N2CCOCC2)N(C)C(=O)[C@H](C2CCCC2)N(C)C(=O)C2(CCCC2)NC(=O)[C@@H]2CCCN2C(=O)[C@H](CCc2ccc(C(F)(F)F)c(Cl)c2)NC(=O)CN(C)C(=O)[C@H](Cc2ccc(C(F)(F)F)cc2)N(CC(C)C)C(=O)[C@@H]2CCN2C(=O)[C@H](C)N(C)C1=O` [PP0107] ([NMeL]I[NMeA][Aze][X40][Sar][hPhe(3-Cl-4-CF3)]P[Ac5c][NMeGly(cPent)][NMeD]-Morpholide; lactam N-11): in test [1] (setting [4]), the Kd is 1.7 nM. In addition, in test [2], the “NRAS/KRAS (ratio of KD value for NRAS to KD value for KRAS)” value is “C (A compound having a KD ratio of 0.1 or more and less than 3 is denoted as C)”. For the same compound, in test [3], the “HRAS/KRAS (ratio of KD value for HRAS to KD value for KRAS)” value is “C (A compound having a KD ratio of 0.1 or more and less than 3 is denoted as C)”.

In the case of `CCO[C@@H]1C[C@H]2C(=O)NC3(CCC3)C(=O)N(C)[C@@H](C3CCCC3)C(=O)N(C)[C@H](C(=O)N(C)C)CC(=O)N(C)[C@@H](CC)C(=O)N[C@@H]([C@@H](C)CC)C(=O)N(C)CC(=O)N(C)[C@H]3CCCCN(C3=O)[C@@H](Cc3ccc(C(F)(F)F)cc3)C(=O)N(C)CC(=O)N[C@@H](CCc3ccc(OC(F)F)c(F)c3)C(=O)N2C1` [PP0986], in test [1] (SPR, Single Cycle Kinetics), the equilibrium dissociation constant (Kd) came to 0.27 nM. Moreover, the “NRAS/KRAS (ratio of KD value for NRAS to KD value for KRAS)” value in test [2] is “C (A compound having a KD ratio of 0.1 or more and less than 3 is denoted as C)”. The “HRAS/KRAS (ratio of KD value for HRAS to KD value for KRAS)” value in test [3] was “C (A compound having a KD ratio of 0.1 or more and less than 3 is denoted as C)”.

For the compound `CC[C@H](C)[C@@H]1NC(=O)[C@H](C)N(C)C(=O)C[C@@H](C(=O)N2CCOCC2)N(C)C(=O)[C@H](C2CCCC2)N(C)C(=O)C2(CCCC2)NC(=O)[C@@H]2CCCN2C(=O)[C@H](CCc2ccc(C(F)(F)F)c(Cl)c2)NC(=O)CN(C)C(=O)[C@H](Cc2ccc(C)cc2)N(CC)C(=O)CN(C)C(=O)CN(C)C1=O` [PP0031] ([NMeA]I[Sar][Sar][NEtPhe(4-Me)][Sar][hPhe(3-Cl-4-CF3)]P[Ac5c][NMeGly(cPent)][NMeD]-Morpholide; lactam N-11), the dissociation constant (Kd) in test [1] (setting [4]) came to 0.18 nM. The “NRAS/KRAS (ratio of KD value for NRAS to KD value for KRAS)” value in test [2] is “B (a compound having 3 or more and less than 10 is denoted as B)”. In test [3], the “HRAS/KRAS (ratio of KD value for HRAS to KD value for KRAS)” value was “C (A compound having a KD ratio of 0.1 or more and less than 3 is denoted as C)”.

`CCC[C@H]1C(=O)N[C@@H]([C@@H](C)CC)C(=O)N(C)CC(=O)N(C)[C@H]2C/C=C\CCN(C2=O)[C@@H](Cc2ccc(C)cc2)C(=O)N(C)CC(=O)N[C@@H](CCc2ccc(Cl)c(C(F)(F)F)c2)C(=O)N2C[C@H](OCC)C[C@H]2C(=O)NC2(CC(C)(C)C2)C(=O)N(C)[C@@H](C(CC)CC)C(=O)N(C)[C@H](C(=O)N(C)C)CC(=O)N1C` [PP2787]: the Kd in test [1] (setting [4]) came out at 0.36 nM. In addition, the “NRAS/KRAS (ratio of KD value with respect to GDP-bound NRAS wild-type protein to KD value with respect to KRAS)” value in test [2] is recorded as “AA (a compound having 20 or more is denoted as AA)”. In addition, the “HRAS/KRAS (ratio of KD value with respect to GDP-bound HRAS wild-type protein to KD value with respect to KRAS)” value in test [3] is “A (a compound having 10 or more and less than 20 is denoted as A)”.

Regarding `CCO[C@@H]1C[C@H]2C(=O)NC3(CCC3)C(=O)N(C)[C@@H](C3CCCC3)C(=O)N(C)[C@H](C(=O)N(C)CC)CC(=O)N(C)[C@@H](CC3CCC3)C(=O)N[C@@H]([C@@H](C)CC)C(=O)N(C)CC(=O)N(C)[C@H]3C/C=C\CCN(C3=O)[C@@H](Cc3ccc(C(F)(F)F)cc3)C(=O)N(C)CC(=O)N[C@@H](CCc3ccc(C(F)(F)F)c(OC)c3)C(=O)N2C1` [PP2825], the Kd in test [1] (setting [4]) was 0.12 nM. In addition, the “NRAS/KRAS (ratio of KD value with respect to GDP-bound NRAS wild-type protein to KD value with respect to KRAS)” value in test [2] was “A (a compound having 10 or more and less than 20 is denoted as A)”. Also, in test [3], the “HRAS/KRAS (ratio of KD value with respect to GDP-bound HRAS wild-type protein to KD value with respect to KRAS)” value is “B (a compound having 3 or more and less than 10 is denoted as B)”.

With `CC[C@H](C)[C@@H]1NC(=O)[C@H](CC(C)C)N(C)C(=O)C[C@@H](C(=O)N2CCOCC2)N(C)C(=O)[C@H](C2CCCC2)N(C)C(=O)C2(CCCC2)NC(=O)[C@@H]2CCCN2C(=O)[C@H](CCc2ccc(C(F)(F)F)c(Cl)c2)NC(=O)CN(C)C(=O)[C@H](Cc2ccccc2)N(CC)C(=O)CN(C)C(=O)CN(C)C1=O` [PP0210] ([NMeL]I[Sar][Sar][NEtPhe][Sar][hPhe(3-Cl-4-CF3)]P[Ac5c][NMeGly(cPent)][NMeD]-Morpholide; lactam N-11), the Kd in test [1] (setting [4]) turned out to be 0.52 nM. For the same compound, in test [2], the “NRAS/KRAS (ratio of KD value for NRAS to KD value for KRAS)” value was “C (A compound having a KD ratio of 0.1 or more and less than 3 is denoted as C)”. The “HRAS/KRAS (ratio of KD value for HRAS to KD value for KRAS)” value in test [3] was “C (A compound having a KD ratio of 0.1 or more and less than 3 is denoted as C)”.
